Source: patent US4264596A, “Maytansinoids, pharmaceutical compositions thereof and method of use thereof” (Takeda Chemical Industries, Ltd., priority 1980, dated 1981)
Converted amounts (≈) assume the structure as drawn.

What was measured:
melanoma B-16 = assay: Antitumor therapeutic test in mice (life span prolongation), melanoma B-16 intraperitoneally transplanted, NCI-protocol 1,300; assay type: in vivo, mouse; details: i.p. once daily for 9 consecutive days
Protocol: Therapeutic tests were carried out in mice according to NCI-protocol 1,300, Cancer Chemother, Reports, Part 3, 1972 , Vol.3, No.2, in which melanoma B-16 tumor cells had been intraperitoneally transplanted, compound (I) being administered intraperitoneally once daily for 9 consecutive days.

Tetrahymena pyriformis W = assay: Antiprotozoal activity, growth inhibition by serial dilution method; assay type: cell-based; details: 28° C., 44 to 48 hours, pH 7.0, serial dilution method, read-out: Antiprotozoal activity, MIC (minimal inhibitory concentration)
Protocol: Antiprotozoal activity of compound (I) was assayed with Tetrahymena pyriformis W as the test organism and a medium composed of 20 g tryptose-peptone (Difco Co.), 1 g yeast extract, 2 g glucose, 1000 ml distilled water, 10 ml 1 M phosphate buffer (pH 7.0) as the assay medium. The microorganism was incubated at 28° C. for 44 to 48 hours and the growth inhibitory activity of compound (I) was assayed by the serial dilution method.

## COC1C=CC=C(C)Cc2cc(OS(C)(=O)=O)c(Cl)c(c2)N(C)C(=O)CC(OC(=O)C(C)C)C2(C)OC2C(C)C2CC1(O)NC(=O)O2 (stereo not drawn) [PDM-3-C20-methenesulfonate, PDM-3-C20-methanesulfonate]
Melanoma B-16; 6.2 μg/kg
  Antitumor activities B-16 (T/C %), life span prolongation: 154%
Melanoma B-16; 12.5 μg/kg
  Antitumor activities B-16 (T/C %), life span prolongation: 195%
Melanoma B-16; 25 μg/kg
  Antitumor activities B-16 (T/C %), life span prolongation: 178%
Melanoma B-16; 50 μg/kg
  Antitumor activities B-16 (T/C %), life span prolongation: 189%
Melanoma B-16; 100 μg/kg
  Antitumor activities B-16 (T/C %), life span prolongation: 218%
Melanoma B-16; 200 μg/kg
  Antitumor activities B-16 (T/C %), life span prolongation: 246%

## COC1C=CC=C(C)Cc2cc(OS(=O)(=O)c3ccc(N)cc3)c(Cl)c(c2)N(C)C(=O)CC(OC(=O)C(C)C)C2(C)OC2C(C)C2CC1(O)NC(=O)O2 (stereo not drawn) [PDM-3-C20-p-aminobenzenesulfonate]
Tetrahymena pyriformis W
  MIC: 2 to 4 µg/mL (≈ 2.58 to 5.15 µM)

## COC1C=CC=C(C)Cc2cc(OS(=O)(=O)c3ccc(Cl)cc3)c(Cl)c(c2)N(C)C(=O)CC(OC(=O)C(C)C)C2(C)OC2C(C)C2CC1(O)NC(=O)O2 (stereo not drawn) [PDM-3-C20-p-chlorobenzenesulfonate]
Tetrahymena pyriformis W
  MIC: 2 µg/mL (≈ 2.51 µM)

## COC1C=CC=C(C)Cc2cc(OS(=O)(=O)c3ccc(C)cc3)c(Cl)c(c2)N(C)C(=O)CC(OC(=O)C(C)C)C2(C)OC2C(C)C2CC1(O)NC(=O)O2 (stereo not drawn) [PDM-3-C20-p-toluenesulfonate]
Tetrahymena pyriformis W
  MIC: 1 to 2 µg/mL (≈ 1.29 to 2.58 µM)
